# Test results as given in patent US9695155B2, “Herbicidal substituted pyrimidinyloxy benzene compounds” (E. I. DU PONT DE NEMOURS AND COMPANY, priority 2013, dated 2017).
# Legend:
# surinam grass = assay: Test E preemergence; type: in vivo, Brachiaria decumbens; conditions: for Surinam Grass plant response rating: scale 0 to 100 (0 no effect, 100 complete control)
# In short: (§1)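 Test chemicals formulated in a non-phytotoxic solvent mixture containing a surfactant were applied preemergence to seeds in silt loam soil or postemergence to plants at the 1- to 4-leaf stage in potting mix. After 14 to 21 days in a greenhouse, injury was visually rated against controls on a 0-100 scale (0 = no effect, 100 = complete control).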
# Italian ryegrass = assay: Test E preemergence; type: in vivo, Lolium multiflorum; conditions: for Ryegrass, Italian plant response rating: scale 0 to 100 (0 no effect, 100 complete control)
# In short: as §1
# green foxtail = assay: Test E preemergence; type: in vivo, Setaria viridis; conditions: for Foxtail, Green plant response rating: scale 0 to 100 (0 no effect, 100 complete control)
# In short: as §1
# goosegrass = assay: Test E preemergence; type: in vivo, Eleusine indica; conditions: for Goosegrass plant response rating: scale 0 to 100 (0 no effect, 100 complete control)
# In short: as §1
# wild poinsettia = assay: Test E preemergence; type: in vivo, Euphorbia heterophylla; conditions: for Poinsettia, Wild plant response rating: scale 0 to 100 (0 no effect, 100 complete control)
# In short: as §1
# sandbur = assay: Test E preemergence; type: in vivo, Cenchrus echinatus; conditions: for Sandbur plant response rating: scale 0 to 100 (0 no effect, 100 complete control)
# In short: as §1
# yellow nutsedge = assay: Test E preemergence; type: in vivo, Cyperus esculentus; conditions: for Nutsedge, Yellow plant response rating: scale 0 to 100 (0 no effect, 100 complete control)
# In short: as §1
# hairy beggarticks = assay: Test E preemergence; type: in vivo, Bidens pilosa; conditions: preemergence; for Beggarticks plant response rating: scale 0 to 100 (0 no effect, 100 complete control)
# In short: as §1
# rice = assay: Test C flooded paddy test; type: in vivo, Oryza sativa; conditions: Flood, scale 0 to 100 (0 no effect, 100 complete control), 13 to 15 days
# In short: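 Visual injury ratings against untreated controls, taken 13 to 15 days after compound was added to paddy water standing 3 cm above the soil.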
# dayflower = assay: Test E preemergence; type: in vivo, Commelina virginica; conditions: for Dayflower, VA plant response rating: scale 0 to 100 (0 no effect, 100 complete control)
# In short: as §1
# lambsquarters = assay: Test E preemergence; type: in vivo, Chenopodium album; conditions: for Lambsquarters plant response rating: scale 0 to 100 (0 no effect, 100 complete control)
# In short: as §1
# arrowleaf sida = assay: Test E preemergence; type: in vivo, Sida rhombifolia; conditions: preemergence; for Arrowleaf Sida plant response rating: scale 0 to 100 (0 no effect, 100 complete control)
# In short: as §1
# [1] = 125 g ai/ha, scale 0 to 100, 0 no effect, 100 complete control
# [2] = 8 g ai/ha, scale 0 to 100, 0 is no effect, 100 is complete control
compound,measurement,setting,value
FC(F)(F)c1cnn(-c2c(Cl)cccc2Oc2ncc(Cl)cn2)c1 [Compound 167],Surinam Grass plant response rating,surinam grass; 31 g ai/ha,0
same,Surinam Grass plant response rating,surinam grass; 62 g ai/ha,0
same,"Plant response rating, Surinam Grass",surinam grass; [1],0
same,"Ryegrass, Italian plant response rating",Italian ryegrass; 31 g ai/ha,0
same,"Ryegrass, Italian plant response rating",Italian ryegrass; 62 g ai/ha,10
same,"Plant response rating, Ryegrass, Italian",Italian ryegrass; [1],40
same,"Foxtail, Green plant response rating",green foxtail; 16 g ai/ha,10
same,"Foxtail, Green plant response rating",green foxtail; 31 g ai/ha,35
same,"Foxtail, Green plant response rating",green foxtail; 62 g ai/ha,70
same,"Plant response rating, Foxtail, Green",green foxtail; [1],90
same,Goosegrass plant response rating,goosegrass; 31 g ai/ha,60
same,Goosegrass plant response rating,goosegrass; 62 g ai/ha,75
same,"Plant response rating, Goosegrass",goosegrass; [1],98
same,"Poinsettia, Wild plant response rating",wild poinsettia; 31 g ai/ha,0
same,"Poinsettia, Wild plant response rating",wild poinsettia; 62 g ai/ha,20
same,"Plant response rating, Poinsettia, Wild",wild poinsettia; [1],25
same,Sandbur plant response rating,sandbur; 31 g ai/ha,0
same,Sandbur plant response rating,sandbur; 62 g ai/ha,20
same,"Plant response rating, Sandbur",sandbur; [1],65
same,"Nutsedge, Yellow plant response rating",yellow nutsedge; 31 g ai/ha,0
same,"Nutsedge, Yellow plant response rating",yellow nutsedge; 62 g ai/ha,0
same,"Plant response rating, Nutsedge, Yellow",yellow nutsedge; [1],0
same,Beggarticks plant response rating,hairy beggarticks; 16 g ai/ha,0
same,Beggarticks plant response rating,hairy beggarticks; 31 g ai/ha,0
same,Beggarticks plant response rating,hairy beggarticks; 62 g ai/ha,0
same,"Plant response rating, Beggarticks",hairy beggarticks; [1],0
same,"Plant response rating, Rice",rice; 31 g ai/ha,0
same,"Plant response rating, Rice",rice; 62 g ai/ha,0
same,"Plant response rating, Rice",rice; 125 g ai/ha,0
same,"Plant response rating, Rice",rice; 250 g ai/ha,0
same,"Dayflower, VA plant response rating",dayflower; 16 g ai/ha,0
same,"Dayflower, VA plant response rating",dayflower; 31 g ai/ha,5
same,"Dayflower, VA plant response rating",dayflower; 62 g ai/ha,65
same,"Plant response rating, Dayflower, VA",dayflower; [1],100
same,Lambsquarters plant response rating,lambsquarters; 31 g ai/ha,98
same,Lambsquarters plant response rating,lambsquarters; 62 g ai/ha,100
same,"Plant response rating, Lambsquarters",lambsquarters; [1],100
same,Arrowleaf Sida plant response rating,arrowleaf sida; 16 g ai/ha,65
same,Arrowleaf Sida plant response rating,arrowleaf sida; 31 g ai/ha,65
same,Arrowleaf Sida plant response rating,arrowleaf sida; 62 g ai/ha,100
same,"Plant response rating, Arrowleaf Sida",arrowleaf sida; [1],100
Fc1cccc(Oc2ncc(Cl)cn2)c1-n1cc(I)cn1 [Compound 179],"Plant response rating, Surinam Grass",surinam grass; [2],0
same,Surinam Grass plant response rating,surinam grass; 62 g ai/ha,0
same,"Plant response rating, Surinam Grass",surinam grass; [1],0
same,"Plant response rating, Ryegrass, Italian",Italian ryegrass; [2],0
same,"Ryegrass, Italian plant response rating",Italian ryegrass; 62 g ai/ha,15
same,"Plant response rating, Ryegrass, Italian",Italian ryegrass; [1],15
same,"Plant response rating, Foxtail, Green",green foxtail; [2],0
same,"Foxtail, Green plant response rating",green foxtail; 16 g ai/ha,0
same,"Foxtail, Green plant response rating",green foxtail; 62 g ai/ha,25
same,"Plant response rating, Foxtail, Green",green foxtail; [1],100
same,"Plant response rating, Goosegrass",goosegrass; [2],0
same,Goosegrass plant response rating,goosegrass; 62 g ai/ha,35
same,"Plant response rating, Goosegrass",goosegrass; [1],70
same,"Plant response rating, Poinsettia, Wild",wild poinsettia; [2],0
same,"Poinsettia, Wild plant response rating",wild poinsettia; 62 g ai/ha,30
same,"Plant response rating, Poinsettia, Wild",wild poinsettia; [1],35
same,"Plant response rating, Sandbur",sandbur; [2],0
same,Sandbur plant response rating,sandbur; 62 g ai/ha,15
same,"Plant response rating, Sandbur",sandbur; [1],15
same,"Plant response rating, Nutsedge, Yellow",yellow nutsedge; [2],0
same,"Nutsedge, Yellow plant response rating",yellow nutsedge; 62 g ai/ha,30
same,"Plant response rating, Nutsedge, Yellow",yellow nutsedge; [1],30
same,"Plant response rating, Beggarticks",hairy beggarticks; [2],0
same,Beggarticks plant response rating,hairy beggarticks; 16 g ai/ha,0
same,Beggarticks plant response rating,hairy beggarticks; 62 g ai/ha,0
same,"Plant response rating, Beggarticks",hairy beggarticks; [1],0
same,"Plant response rating, Rice",rice; 31 g ai/ha,0
same,"Plant response rating, Rice",rice; 62 g ai/ha,0
same,"Plant response rating, Rice",rice; 125 g ai/ha,10
same,"Plant response rating, Rice",rice; 250 g ai/ha,10
same,"Plant response rating, Dayflower, VA",dayflower; [2],0
same,"Dayflower, VA plant response rating",dayflower; 16 g ai/ha,0
same,"Dayflower, VA plant response rating",dayflower; 62 g ai/ha,0
same,"Plant response rating, Dayflower, VA",dayflower; [1],60
same,"Plant response rating, Lambsquarters",lambsquarters; [2],0
same,Lambsquarters plant response rating,lambsquarters; 62 g ai/ha,95
same,"Plant response rating, Lambsquarters",lambsquarters; [1],100
same,"Plant response rating, Arrowleaf Sida",arrowleaf sida; [2],0
same,Arrowleaf Sida plant response rating,arrowleaf sida; 16 g ai/ha,20
same,Arrowleaf Sida plant response rating,arrowleaf sida; 62 g ai/ha,100
same,"Plant response rating, Arrowleaf Sida",arrowleaf sida; [1],100
"FC(F)c1cccc(Oc2ncc(Cl)cn2)c1-n1cc(Br)cn1 [Compound 194, 2-[2-(4-bromo-1H-pyrazol-1-yl)-3-(difluoromethyl)phenoxy]-5-chloropyrimidine]",Surinam Grass plant response rating,surinam grass; 31 g ai/ha,0
same,Surinam Grass plant response rating,surinam grass; 62 g ai/ha,0
same,"Ryegrass, Italian plant response rating",Italian ryegrass; 31 g ai/ha,0
same,"Ryegrass, Italian plant response rating",Italian ryegrass; 62 g ai/ha,0
same,"Foxtail, Green plant response rating",green foxtail; 31 g ai/ha,35
same,"Foxtail, Green plant response rating",green foxtail; 62 g ai/ha,80
same,Goosegrass plant response rating,goosegrass; 31 g ai/ha,40
same,Goosegrass plant response rating,goosegrass; 62 g ai/ha,75
same,"Poinsettia, Wild plant response rating",wild poinsettia; 31 g ai/ha,10
same,"Poinsettia, Wild plant response rating",wild poinsettia; 62 g ai/ha,0
same,Sandbur plant response rating,sandbur; 31 g ai/ha,20
same,Sandbur plant response rating,sandbur; 62 g ai/ha,20
same,"Nutsedge, Yellow plant response rating",yellow nutsedge; 31 g ai/ha,0
same,"Nutsedge, Yellow plant response rating",yellow nutsedge; 62 g ai/ha,20
same,Beggarticks plant response rating,hairy beggarticks; 31 g ai/ha,0
same,Beggarticks plant response rating,hairy beggarticks; 62 g ai/ha,0
same,"Plant response rating, Rice",rice; 31 g ai/ha,10
same,"Plant response rating, Rice",rice; 62 g ai/ha,10
same,"Plant response rating, Rice",rice; 125 g ai/ha,10
same,"Plant response rating, Rice",rice; 250 g ai/ha,10
same,"Dayflower, VA plant response rating",dayflower; 31 g ai/ha,0
same,"Dayflower, VA plant response rating",dayflower; 62 g ai/ha,40
same,Lambsquarters plant response rating,lambsquarters; 31 g ai/ha,80
same,Lambsquarters plant response rating,lambsquarters; 62 g ai/ha,100
same,Arrowleaf Sida plant response rating,arrowleaf sida; 31 g ai/ha,35
same,Arrowleaf Sida plant response rating,arrowleaf sida; 62 g ai/ha,100
